Assay results taken from patent US8815590B2, “Composition and method for differentiation of human embryonic stem cells” (Stem Cells for Safer Medicines Limited, priority 2009, dated 2014).

Tests used:
ESCs [SHEF1] [1] = experiment: Immunofluorescence of endoderm markers FoxA2 and HNF4α, percent positive cells; assay type: cell-based, human; conditions: 5 days
Description: (§1) (A) RNA was extracted from ESCs [SHEF1] cultured for 7 days in the presence of 2 μM 1M for the days indicated. RT-PCR analyses were performed using primers selective for the genes indicated. (B) ESCs [SHEF1] were treated with 2 μM 1M alone or in combination with 10 μM SB43125 (S) for the days indicated and RT-PCR performed on the extracted RNA. (C) ESCs [SHEF3] were treated with 1M alone or in combination with 100 ng/ml Activin A (A) for the days indicated and RT-PCR performed. (D). ESCs [SHEF1] were treated with 2 μM 1M, or 100 ng/ml ActivinA (A) alone or in combination with 1M for 5 days. Expression of the endoderm markers FoxA2 and HNF4α was analysed by immunofluorescence. The number of percent positive cells averaged from 3 fields of view +/−SD are indicated. Scale bar represents 50 μm. (E) ESCs [SHEF1] were treated with 2 μM 1M, or 100 ng/ml ActivinA (A) alone or in combination with 1M for 5 days. Expression of the DE marker CXCR4 was alaysed by flow cytometry.
ESCs were cultured on Matrigel®-coated lummox (Greiner Bio One) trays and fixed with 4% paraformaldehyde (PFA) for 20 minutes at room temperature. Cells were permeabilised in PBST (with 0.1% Triton X-100) and blocked in 10% blocking reagent (Roche) before incubating with primary antibodies in 2% blocking reagent overnight at 4° C. After washing in PBS, cells were incubated with FITC-conjugated secondary antibodies (Vector Labs) for 3 hours at room temperature. After further washing, the cells were stained with 4,6-diamidino-2-phenylindole (DAPI) (SIGMA), washed again and mounted in MOWIOL. The following antibodies and dilutions were used: goat-anti-FoxA2 (1:100, R&D. Systems), mouse anti-Sox17 (1:50, R&D Systems), rabbit anti-HNF4α (1:100, Santa Cruz), rabbit anti-AFP (1:100, DAKO), rabbit anti-TTR (1:100, DAKO). Images were captured on a Zeiss 510 Meta confocal microscope using a 40× objective.

ESCs [SHEF1] [2] = experiment: Flow cytometry of the DE marker CXCR4; assay type: cell-based, human; conditions: 2 μM 1M, 100 ng/ml Activin A, alone or in combination, 5 days
Description: as §1
ESCs were trypsinised (0.05% Trypsin-EDTA) for 10 minutes at 37° C. and resuspended in PBS containing 2% (v/v) FBS (FBS/PBS). […] Flow cytometry was performed using a FACSCanto cytometer (Becton Dickenson) and the data were analysed with FACSDiva software. […]

GSK-3 = experiment: Phospho-β-catenin immunoblot and TOPFlash luciferase reporter assay in human ESCs; assay type: cell-based; conditions: 30 min (immunoblot) or 24 hr (TOPFlash)
Description: (A) ESCs [SHEF3] were cultured on MEFs or on Matrigel® in mTeSR1® media and treated with BIO or 1M for 30 min. Protein extracts were prepared and immunoblotting was performed using antibodies detecting the phosphorylated form of […]. The same immunoblot in each case was reprobed for total β-catenin to assess loading. (B) TOPFlash luciferase reporter assay of ESCs [SHEF1] treated for 24 hr with BIO or 1M at the indicated concentrations. Luciferase activity is expressed as a fold increase in activation compared with the normalised TOPFlash luciferase activity in untreated (Con) cells. Data represent the mean+/−SEM of 3 independent experiments.
Cell lysates (20 μg) were prepared, separated by SDS-PAGE and transferred to nitrocellulose as described previously (Welham et al., 1994). […] Images were captured and analysed using the ImageQuant RT ECL system (GE Healthcare). […]
The TOPFlash luciferase reporter plasmid (containing four consensus TCF binding sites upstream of the c-fos minimal promoter, driving expression of a firefly luciferase reporter) and its negative control plasmid FOPFlash (containing four mutant TCF binding sites) were provided by Dr C. […] Cell extracts were prepared and firefly and Renilla luciferase activities were determined using the dual-luciferase reporter assay system according to the manufacturer's instructions (Promega). […]

ESCs [SHEF1] [3] = experiment: RT-PCR of Activin/Nodal pathway and differentiation marker genes; assay type: cell-based, human; conditions: 2 μM, after 1 day, maintained up to 3 days, basal by day 7
Description: as §1
Total RNA was isolated and purified using TRIzol Reagent (Invitrogen), following the manufacturer's instructions. All RNA samples were treated with DNase I (Ambion) before cDNA synthesis to eliminate any contaminating genomic DNA. RNA (1 μg) was reverse transcribed into cDNA using Oligo(dT)15 (Promega) and SuperScript II (Invitrogen). Gene-specific PCR was carried out using primers and annealing temperatures outlined in Table 2.

O=C1NC(=O)C2=C1c1cn(c3ccccc13)CCOCCOCCOCCOCCn1cc2c2ccccc21 [1M]
FOXA2 expressing cells in the entire population (ESCs [SHEF1] [1]; 2 μM 1M or 100 ng/ml Activin A): 35-40% | HNF4α-expressing cells (ESCs [SHEF1] [1]; 2 μM 1M or 100 ng/ml Activin A): 20% | FoxA2 positive cells in clusters of cells (ESCs [SHEF1] [1]; 2 μM, within clusters): 73% | CXCR4 expression by flow cytometry (ESCs [SHEF1] [2]): 53.0% | GSK-3-mediated signaling (β-catenin phosphorylation, TOPFlash activity) (GSK-3): inhibits GSK-3-mediated signaling | NODAL gene expression (ESCs [SHEF1] [3]): increase in NODAL gene expression
